Laboratory results: patent US20090087497A1, “Compositions and methods for treating symptoms of aging” (Burnham Institute for Medical Research, priority 2007, published 2009)

What was measured:
mice = settings: 2 mg/ml in the drinking water, chronic; cited from earlier work
flies = assay: Development of flies under doxycycline; format: in vivo, Drosophila
Drosophila melanogaster = assay: Screen of individual and combined compounds on age-related physiological parameters (maximal heart rate and exercise capacity); format: in vivo; settings: separate study of the five best combinations with larger number of flies; FIG. 3
Description: The first dataset of combined interventions. We performed an initial screen of compounds for their effects on cardiac aging in Drosophila, selected for their very general effects on multiple biological functions, known low toxicity and, for some, known effects on aging in other models (Wood et al., Nature 430:686-689, 2004).
After screening 44 compounds individually at multiple doses (a total of 300 groups, each composed of 10-20 flies), we chose two doses each of four compounds for more comprehensive measurements of their combined effects on three age-related phenotypes: maximal heart rate and exercise capacity declines with age and survival. […]

## C[C@H]1c2cccc(O)c2C(=O)C2=C(O)[C@]3(O)C(=O)C(C(N)=O)=C(O)[C@@H](N(C)C)[C@@H]3[C@@H](O)[C@@H]21 [doxycycline]
mice
  effect on body weight: no effect
  plasma levels: close to saturation
flies
  effect on development in flies: slows development

## Oc1ccc(C=Cc2cc(O)cc(O)c2)cc1 [resveratrol]
Drosophila melanogaster
  functional improvement confirmed in additional tests (climbing velocity and maximal heart rate): not
